Laboratory results as given in patent US8865724B2, “Preparation of 2-methyl-4-amino-5(substituted-1H-1,2,3-triazolyl)methylpyrimidine derivatives and microbicidal activity thereof” (Central China Normal University, priority 2011, dated 2014).
Read-outs that look alike come from different tables or passages of the source.

Assays:
[1] = test system: Corynespora Leaf Spot of Cucumber; experiment: Microbicidal activity on cucumber seedlings, spray then spore inoculation (Embodiment 8); conditions: Corynespora, in Cucumis sativus, read-out: Corynespora Leaf Spot of Cucumber Average inhibition rate (%)
Method: (§1) (Pseudomonassyringaepv. tomato (Okabe) Young, Dye & Wilkie), Cucumber Angular Leaf Spot, Rice Sheath Blight Disease (Rhizoctonia solani), Corynespora Leaf Spot of Cucumber (Corynespora cassiicola), Downy Mildew of Cucumber (Cucumber Downy Mildew).
(§2) Testing agents and control agents were sprayed uniformly at A.M. of a sunshine day on the cucumber seminal leaves. After 2 hours, the leaves were inoculated with pathogenic microbes and cultured at humidity. […] Strip inoculation is used for Rice Sheath Blight Disease and phytophthora blight of pepper, in which the liquor was sprayed and after 2 hours, inoculation of strips was performed followed by culturing at humidity. After full occurrence of diseases in the control group, state of illness was examined according to grading standards, and a disease index and inhibition rate were calculated.

gray mold of cucumber = experiment: Spawn growth rate on agar plates (Embodiment 9); assay type: cell-based, Botrytis cinerea; conditions: 48 h; for inhibition of growth at 12.5 µg/g: Concentration 12.5 μg/g; for inhibition of growth at 25 µg/g: Concentration 25 μg/g; for inhibition of growth at 50 µg/g: Concentration 50 μg/g
wheat scab = experiment: microbe, parasite or virus in culture; assay type: cell-based, Gibberella zeae; conditions: for inhibition of growth at 100 µg/g: 48 h, read-out: Wheat scab Average inhibition rate (%); for Wheat scab (inhibition): Table 7
[2] = test system: Rice Sheath Blight Disease; experiment: Microbicidal activity, spray then strip inoculation (Embodiment 8); conditions: Oryza sativa, read-out: Rice Sheath Blight Disease Average inhibition rate (%)
Downy Mildew of Cucumber = experiment: Microbicidal activity on cucumber seedlings, spray then spore inoculation (Embodiment 8); conditions: Cucumis sativus, read-out: Downy Mildew of Cucumber Average inhibition rate (%)
Method: as §1, §2

[3] = test system: Cucumber Angular Leaf Spot; experiment: Microbicidal activity on cucumber seedlings, spray then inoculation (Embodiment 8); conditions: Cucumis sativus, read-out: Cucumber Angular Leaf Spot Average inhibition rate (%)
Method: as §1, §2

early blight of tomato = experiment: Spawn growth rate on agar plates (Embodiment 9); assay type: cell-based, Alternaria solania; conditions: for inhibition of growth at 100 µg/g: 48 h, testing concentration of 100 μg/g, Table 6; for Early blight of tomato (inhibition): Table 7
[4] = test system: Rice Sheath Blight Disease (sheath and culm blight of rice); experiment: Spawn growth rate on agar plates (Embodiment 9); assay type: cell-based, Rhizoctonia solani; conditions: 48 h; for inhibition of growth at 12.5 µg/g: Concentration 12.5 μg/g; for inhibition of growth at 25 µg/g: Concentration 25 μg/g; for inhibition of growth at 50 µg/g: Concentration 50 μg/g
[5] = testing concentration of 100 μg/g, Table 4, read-out: Gray mold of cucumber Average inhibition rate (%)
[6] = testing concentration of 100 μg/g, Table 6, read-out: Gray mold of cucumber Average inhibition rate (%)
[7] = testing concentration of 100 μg/g, Table 6, read-out: Sheath and culm blight of rice Average inhibition rate (%)
[8] = Concentration 100 μg/g, Table 7, read-out: Gray mold of cucumber (inhibition)
[9] = Concentration 100 μg/g, Table 7, read-out: Sheath and culm blight of rice (inhibition)

| SMILES | pest or weed control at 500 µg/g [1] | inhibition of growth at 100 µg/g (gray mold of cucumber; [5]) | inhibition of growth at 100 µg/g (wheat scab) | pest or weed control at 500 µg/g [2] | pest or weed control at 500 µg/g (Downy Mildew of Cucumber) | melting point | pest or weed control at 500 µg/g [3] | inhibition of growth at 12.5 µg/g (gray mold of cucumber; Table 8) | inhibition of growth at 25 µg/g (gray mold of cucumber; Table 8) | inhibition of growth at 50 µg/g (gray mold of cucumber; Table 8) | inhibition of growth at 100 µg/g (gray mold of cucumber; [6]) | inhibition of growth at 100 µg/g (early blight of tomato) | inhibition of growth at 12.5 µg/g ([4]; Table 8) | inhibition of growth at 25 µg/g ([4]; Table 8) | inhibition of growth at 50 µg/g ([4]; Table 8) | inhibition of growth at 100 µg/g [4, 7] | other results |
| --- | --- | --- | --- | --- | --- | --- | --- | --- | --- | --- | --- | --- | --- | --- | --- | --- | --- |
| Cc1ncc(Cn2cc(COc3ccccc3[N+](=O)[O-])nn2)c(N)n1 [Compound 16] | 80% | 82% | 63% | 70% | 50% | 184 to 185 °C | 70% | – | – | – | – | – | – | – | – | – | – |
| CCOC(=O)c1ccc(OCc2cn(Cc3cnc(C)nc3N)nn2)cc1 [Compound 3] | 80% | 70% | – | 80% | 60% | 190 to 192 °C | 60% | – | – | – | – | – | – | – | – | – | – |
| COc1ccc(OCc2cn(Cc3cnc(C)nc3N)nn2)cc1 [Compound 13] | 80% | 49% | – | 70% | 50% | 115 to 117 °C | 60% | – | – | – | – | – | – | – | – | – | – |
| Cc1ncc(Cn2nnc(COc3ccc(Br)cc3)c2I)c(N)n1 [Compound 84] | – | – | 62% | – | – | 138 to 140 °C | – | 66% | 90% | 94% | 93% | 58% | 73% | 95% | 97% | 98% | – |
| Cc1ncc(Cn2nnc(COc3ccccc3)c2I)c(N)n1 [Compound 23] | – | – | 59% | – | – | – | – | – | – | – | 88% | 57% | – | – | – | 96% | – |
| Cc1ncc(Cn2nnc(COc3ccccc3Cl)c2I)c(N)n1 [Compound 86] | – | – | 62% | – | – | 168 to 170 °C | – | 40% | 76% | 97% | 100% | 60% | 37% | 74% | 98% | 99% | – |
| Cc1ncc(Cn2cc(COc3ccccc3)nn2)c(N)n1 [Compound 12] | 70% | 53% | – | 80% | 70% | 132 to 133 °C | 60% | – | – | – | – | – | – | – | – | – | – |
| Cc1ncc(Cn2cc(COc3ccc([N+](=O)[O-])cc3)nn2)c(N)n1 [Compound 1] | 50% | – | – | 90% | 75% | – | 60% | – | – | – | – | – | – | – | – | – | – |
| Cc1ncc(Cn2cc(COc3ccc(F)cc3Cl)nn2)c(N)n1 [Compound 6] | 90% | 63% | – | 70% | 30% | 169 to 171 °C | 65% | – | – | – | – | – | – | – | – | – | – |
| COC(=O)Cc1ccc(OCc2cn(Cc3cnc(C)nc3N)nn2)cc1 [Compound 9] | 60% | 79% | – | 90% | 80% | 142 to 143 °C | 60% | – | – | – | – | – | – | – | – | – | – |
| Cc1ncc(Cn2nnc(COc3ccc(Cl)c(C)c3)c2I)c(N)n1 [Compound 25] | – | – | 62% | – | – | 215 to 217 °C | – | 40% | 50% | 67% | 96% | 71% | 0% | 25% | 61% | 97% | – |
| Cc1ncc(Cn2nnc(COc3ccc([N+](=O)[O-])cc3)c2I)c(N)n1 [Compound 24] | – | – | 68% | – | – | 215 to 217 °C | – | – | – | – | 84% | 66% | – | – | – | 97% | – |
| CC1COC(Cn2cncn2)(c2ccc(Oc3ccc(Cl)cc3)cc2Cl)O1 (stereo not shown) [Difenoconazole, reference compound] | – | 73% | 98% | – | – | – | – | – | – | – | 96% | 100% | – | – | – | 100% | inhibition of growth at 100 µg/g (gray mold of cucumber; [8]): 86%; inhibition of growth at 100 µg/g (gray mold of cucumber; Concentration 100 μg/g, Table 8, read-out: Gray mold of cucumber (inhibition)): 96%; Wheat scab (inhibition) (wheat scab; Concentration 100 μg/g): 95%; inhibition of growth at 100 µg/g [4, 9]: 91%; inhibition of growth at 100 µg/g ([4]; Concentration 100 μg/g, Table 8, read-out: Sheath and culm blight of rice (inhibition)): 100% |
| Cc1ncc(Cn2nnc(COc3ccc(Cl)cc3C)c2I)c(N)n1 [Compound 29] | – | – | 67% | – | – | 163 to 165 °C | – | 47% | 72% | 91% | 100% | 60% | 33% | 68% | 69% | 98% | inhibition of growth at 25 µg/g (gray mold of cucumber; Table 7): 79%; inhibition of growth at 50 µg/g (gray mold of cucumber; Table 7): 90%; inhibition of growth at 100 µg/g (gray mold of cucumber; [8]): 100%; Wheat scab (inhibition) (wheat scab; Concentration 25 μg/g): 26%; Wheat scab (inhibition) (wheat scab; Concentration 50 μg/g): 45%; Wheat scab (inhibition) (wheat scab; Concentration 100 μg/g): 52%; Early blight of tomato (inhibition) (early blight of tomato; Concentration 25 μg/g): 0%; Early blight of tomato (inhibition) (early blight of tomato; Concentration 50 μg/g): 25%; Early blight of tomato (inhibition) (early blight of tomato; Concentration 100 μg/g): 41%; inhibition of growth at 25 µg/g ([4]; Table 7): 64%; inhibition of growth at 50 µg/g ([4]; Table 7): 70%; inhibition of growth at 100 µg/g [4, 9]: 96% |
| Cc1ncc(Cn2nnc(COc3ccc(F)cc3Cl)c2I)c(N)n1 [Compound 27] | – | – | 39% | – | – | 187 to 189 °C | – | 59% | 66% | 92% | 99% | 38% | 0% | 37% | 72% | 94% | – |
| Cc1ncc(Cn2nnc(COc3ccc(F)cc3)c2I)c(N)n1 [Compound 82] | – | – | 48% | – | – | 160 to 162 °C | – | 56% | 97% | 99% | 96% | 70% | 63% | 90% | 100% | 96% | – |
| Cc1ncc(Cn2cc(COc3ccc(Cl)c(C)c3)nn2)c(N)n1 [Compound 11] | 65% | 67% | 54% | 70% | 50% | 142 to 143 °C | 60% | – | – | – | – | – | – | – | – | – | – |
| Cc1ncc(Cn2cc(COc3ccc([N+](=O)[O-])cc3[N+](=O)[O-])nn2)c(N)n1 [Compound 8] | 70% | 54% | – | 70% | 60% | 210 to 211 °C | 60% | – | – | – | – | – | – | – | – | – | – |
